According to PubChem BioAssay (NCI):
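Each compound was tested at five concentrations against cells in 96-well plates for 48 hours. Definition used: TGI = concentration required for complete inhibition of growth.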

How the values were obtained:
Experiment in all cases: NCI tumour cell line growth inhibition, 48 h
[1] = tested on: HT29 colon
[2] = tested on: OVCAR-4 ovarian
[3] = tested on: NCI-H460 lung
[4] = tested on: M19-MEL melanoma
[5] = tested on: SF-268 CNS
[6] = tested on: HOP-92 NSCLC
[7] = tested on: SK-MEL-2 melanoma
[8] = tested on: XF 498 CNS
[9] = tested on: OVCAR-3 ovarian
[10] = tested on: SF-295 CNS
[11] = tested on: SNB-19 CNS
[12] = tested on: RPMI-8226 leukemia
[13] = tested on: HCT-116 colon
[14] = tested on: CAKI-1 renal
[15] = tested on: UACC-257 melanoma
[16] = tested on: A549 NSCLC
[17] = tested on: SW-620 colon
[18] = tested on: KM12 colon
[19] = tested on: NCI-H23 lung
[20] = tested on: EKVX NSCLC
[21] = tested on: M14 melanoma
[22] = tested on: TK-10 renal
[23] = tested on: DMS 273 small cell lung
[24] = tested on: ACHN renal
[25] = tested on: OVCAR-5 ovarian
[26] = tested on: CCRF-CEM leukemia
[27] = tested on: IGROV1 ovarian
[28] = tested on: HOP-62 NSCLC
[29] = tested on: OVCAR-8 ovarian
[30] = tested on: MOLT-4 leukemia
[31] = tested on: SK-OV-3 ovarian
[32] = tested on: SF-539 CNS
[33] = tested on: K-562 leukemia
[34] = tested on: DLD-1 colon
[35] = tested on: HOP-18 NSCLC
[36] = tested on: SK-MEL-5 melanoma
[37] = tested on: HL-60(TB) leukemia
[38] = tested on: UO-31 renal
[39] = tested on: SN12C renal
[40] = tested on: LOX IMVI melanoma
[41] = tested on: KM20L2 colon
[42] = tested on: HCC-2998 colon
[43] = tested on: 786-0 renal
[44] = tested on: SNB-78 CNS
[45] = tested on: HCT-15 colon
[46] = tested on: UACC-62 melanoma
[47] = tested on: A498 renal
[48] = tested on: U251 CNS
[49] = tested on: RXF 393 renal
[50] = tested on: MALME-3M melanoma
[51] = tested on: COLO 205 colon
[52] = tested on: DMS 114 small cell lung
[53] = tested on: LXFL 529 NSCLC
[54] = tested on: SNB-75 CNS
[55] = tested on: SR leukemia
[56] = tested on: NCI-H226 lung
[57] = tested on: NCI-H522 lung
[58] = tested on: SK-MEL-28 melanoma

SMILES: COC(=O)CC(=O)OC
- TGI [1]: > 100 µM
- TGI [2]: > 100 µM
- TGI [3]: > 100 µM
- TGI [4]: > 100 µM
- TGI [5]: > 100 µM
- TGI [6]: > 100 µM
- TGI [7]: > 100 µM
- TGI [8]: > 100 µM
- TGI [9]: > 100 µM
- TGI [10]: > 100 µM
- TGI [11]: > 100 µM
- TGI [12]: > 100 µM
- TGI [13]: > 100 µM
- TGI [14]: > 100 µM
- TGI [15]: > 100 µM
- TGI [16]: > 100 µM
- TGI [17]: > 100 µM
- TGI [18]: > 100 µM
- TGI [19]: > 100 µM
- TGI [20]: > 100 µM
- TGI [21]: > 100 µM
- TGI [22]: > 100 µM
- TGI [23]: > 100 µM
- TGI [24]: > 100 µM
- TGI [25]: > 100 µM
- TGI [26]: > 100 µM
- TGI [27]: > 100 µM
- TGI [28]: > 100 µM
- TGI [29]: > 100 µM
- TGI [30]: > 100 µM
- TGI [31]: > 100 µM
- TGI [32]: > 100 µM
- TGI [33]: > 100 µM
- TGI [34]: > 100 µM
- TGI [35]: > 100 µM
- TGI [36]: > 100 µM
- TGI [37]: > 100 µM
- TGI [38]: > 100 µM
- TGI [39]: > 100 µM
- TGI [40]: > 100 µM
- TGI [41]: > 100 µM
- TGI [42]: > 100 µM
- TGI [43]: > 100 µM
- TGI [44]: > 100 µM
- TGI [45]: > 100 µM
- TGI [46]: > 100 µM
- TGI [47]: > 100 µM
- TGI [48]: > 100 µM
- TGI [49]: > 100 µM
- TGI [50]: > 100 µM
- TGI [51]: > 100 µM
- TGI [52]: > 100 µM
- TGI [53]: > 100 µM
- TGI [54]: > 100 µM

SMILES: Cc1ccc(C2=C(c3ccccc3)C(=O)C(c3ccccc3)=C2c2ccc(C)cc2)cc1
- TGI [1]: > 100 µM
- TGI [3]: > 100 µM
- TGI [4]: > 100 µM
- TGI [5]: > 100 µM
- TGI [7]: > 100 µM
- TGI [8]: > 100 µM
- TGI [10]: > 100 µM
- TGI [11]: > 100 µM
- TGI [12]: > 100 µM
- TGI [13]: > 100 µM
- TGI [15]: > 100 µM
- TGI [16]: > 100 µM
- TGI [17]: 95.7 µM
- TGI [18]: > 100 µM
- TGI [19]: 85.1 µM
- TGI [55]: > 100 µM
- TGI [20]: > 100 µM
- TGI [21]: > 100 µM
- TGI [22]: > 100 µM
- TGI [24]: > 100 µM
- TGI [25]: > 100 µM
- TGI [26]: 70.5 µM
- TGI [27]: > 100 µM
- TGI [28]: > 100 µM
- TGI [29]: > 100 µM
- TGI [30]: > 100 µM
- TGI [31]: > 100 µM
- TGI [32]: 46.9 µM
- TGI [33]: > 100 µM
- TGI [34]: > 100 µM
- TGI [35]: > 100 µM
- TGI [56]: > 100 µM
- TGI [36]: > 100 µM
- TGI [57]: > 100 µM
- TGI [38]: > 100 µM
- TGI [39]: > 100 µM
- TGI [58]: 48 µM
- TGI [41]: > 100 µM
- TGI [42]: > 100 µM
- TGI [43]: > 100 µM
- TGI [44]: > 100 µM
- TGI [45]: > 100 µM
- TGI [47]: > 100 µM
- TGI [48]: > 100 µM
- TGI [49]: > 100 µM
- TGI [50]: > 100 µM
- TGI [53]: > 100 µM
- TGI [54]: > 100 µM

SMILES: CCCCCCCCCCCCCC(=S)N/C=C/OC
- TGI [1]: 50.1 µM
- TGI [2]: > 100 µM
- TGI [3]: > 100 µM
- TGI [4]: 99.6 µM
- TGI [5]: > 100 µM
- TGI [6]: 74.5 µM
- TGI [7]: 73 µM
- TGI [8]: 51.9 µM
- TGI [9]: 56.1 µM
- TGI [10]: 85.4 µM
- TGI [11]: > 100 µM
- TGI [12]: 51.5 µM
- TGI [13]: > 100 µM
- TGI [15]: 57 µM
- TGI [16]: > 100 µM
- TGI [17]: > 100 µM
- TGI [18]: 81.9 µM
- TGI [19]: 74 µM
- TGI [20]: 81.7 µM
- TGI [21]: > 100 µM
- TGI [22]: > 100 µM
- TGI [24]: 96.4 µM
- TGI [25]: > 100 µM
- TGI [26]: 56.2 µM
- TGI [27]: > 100 µM
- TGI [28]: > 100 µM
- TGI [29]: > 100 µM
- TGI [31]: > 100 µM
- TGI [32]: > 100 µM
- TGI [34]: > 100 µM
- TGI [35]: > 100 µM
- TGI [56]: > 100 µM
- TGI [36]: 61.7 µM
- TGI [37]: 36.8 µM
- TGI [57]: 46.3 µM
- TGI [38]: 95.6 µM
- TGI [39]: > 100 µM
- TGI [58]: > 100 µM
- TGI [40]: 46.8 µM
- TGI [41]: > 100 µM
- TGI [42]: 45.9 µM
- TGI [43]: > 100 µM
- TGI [44]: > 100 µM
- TGI [45]: 53.3 µM
- TGI [46]: 71.3 µM
- TGI [47]: 86.2 µM
- TGI [48]: 53.1 µM
- TGI [49]: 54.8 µM
- TGI [50]: > 100 µM
- TGI [51]: 71.4 µM
- TGI [52]: 48.3 µM
- TGI [53]: > 100 µM
- TGI [54]: > 100 µM
